Measured values: patent publication US4068070A, “α-Cyanoamine compounds and a process for producing the same” (Fuji Chemical Industry Co., Ltd., priority 1974, dated 1978)

Experiments:
Type in all cases: in vivo, mongrel adult dogs
[1] = system: arterial mean blood pressure; test: Effects on arterial mean blood pressure
In short: (§1)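 In pentobarbital-anesthetized open-chest mongrels, aortic root flow and carotid-cannula blood pressure are monitored after i.v. administration.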

aortic blood flow = test: Effects on aortic blood flow
In short: as §1

heart rate = test: Effects on heart rate
In short: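 Adult mongrel dogs of both sexes were anesthetized with pentobarbital and thoracotomized. Test agents, suspended or dissolved in 0.2% CMC, pH 6 HCl solution or saline, were injected intravenously into the brachial vein. Hemodynamic and coronary sinus parameters were then recorded.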

coronary sinus out flow = test: Effects on coronary sinus out flow
In short: (§2)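 Intravenous brachial dosing of test compound or active placebo in anesthetized, thoracotomized dogs weighing about 10 kg. Coronary sinus outflow was measured with an electromagnetic flowmeter and oxygen tension with a pO2 electrode after Morawitz cannulation of the sinus.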

[2] = system: coronary sinus oxygen tension; test: Effects on coronary sinus oxygen tension
In short: as §2

## COc1ccc(C(C#N)N2CCCN(CC=Cc3ccccc3)CC2)cc1OC (centres unmarked) [Compound E]
[1]; 2.0 mg/kg i.v., 1 min
  Changes (%) of basal values, arterial mean blood pressure: -1.5%
[1]; 2.0 mg/kg i.v., 5 min
  Changes (%) of basal values, arterial mean blood pressure: -3.3%
[1]; 2.0 mg/kg i.v., 10 min
  Changes (%) of basal values, arterial mean blood pressure: -2.1%
[1]; 2.0 mg/kg i.v., 20 min
  Changes (%) of basal values, arterial mean blood pressure: -1.0%
[1]; 2.0 mg/kg i.v., 30 min
  Changes (%) of basal values, arterial mean blood pressure: -0.3%
[1]; 2.0 mg/kg i.v., 40 min
  Changes (%) of basal values, arterial mean blood pressure: 0%
[1]; 2.0 mg/kg i.v., imm.
  Changes (%) of basal values, arterial mean blood pressure: -7.4%
[1]; 6.0 mg/kg i.v., 1 min
  Changes (%) of basal values, arterial mean blood pressure: -3.8%
[1]; 6.0 mg/kg i.v., 5 min
  Changes (%) of basal values, arterial mean blood pressure: -6.0%
[1]; 6.0 mg/kg i.v., 10 min
  Changes (%) of basal values, arterial mean blood pressure: -10.9%
[1]; 6.0 mg/kg i.v., 20 min
  Changes (%) of basal values, arterial mean blood pressure: -8.2%
[1]; 6.0 mg/kg i.v., 30 min
  Changes (%) of basal values, arterial mean blood pressure: -3.8%
[1]; 6.0 mg/kg i.v., 40 min
  Changes (%) of basal values, arterial mean blood pressure: -2.8%
[1]; 6.0 mg/kg i.v., imm.
  Changes (%) of basal values, arterial mean blood pressure: -22.6%
[1]; 20.0 mg/kg i.v., 1 min
  Changes (%) of basal values, arterial mean blood pressure: -8.3%
[1]; 20.0 mg/kg i.v., 5 min
  Changes (%) of basal values, arterial mean blood pressure: -15.9%
[1]; 20.0 mg/kg i.v., 10 min
  Changes (%) of basal values, arterial mean blood pressure: -21.2%
[1]; 20.0 mg/kg i.v., 20 min
  Changes (%) of basal values, arterial mean blood pressure: -19.9%
[1]; 20.0 mg/kg i.v., 30 min
  Changes (%) of basal values, arterial mean blood pressure: -16.2%
[1]; 20.0 mg/kg i.v., 40 min
  Changes (%) of basal values, arterial mean blood pressure: -11.4%
[1]; 20.0 mg/kg i.v., imm.
  Changes (%) of basal values, arterial mean blood pressure: -29.9%
[1]; i.v., anesthetized dogs
  Effects on arterial mean blood pressure (in words): hypotensive effects being proportioned to their doses which were of long duration
Aortic blood flow; 2.0 mg/kg i.v., 1 min
  Changes (%) of basal values, aortic blood flow: +3.6%
Aortic blood flow; 2.0 mg/kg i.v., 5 min
  Changes (%) of basal values, aortic blood flow: +0.8%
Aortic blood flow; 2.0 mg/kg i.v., 10 min
  Changes (%) of basal values, aortic blood flow: 0%
Aortic blood flow; 2.0 mg/kg i.v., 20 min
  Changes (%) of basal values, aortic blood flow: 0%
Aortic blood flow; 2.0 mg/kg i.v., 30 min
  Changes (%) of basal values, aortic blood flow: 0%
Aortic blood flow; 2.0 mg/kg i.v., 40 min
  Changes (%) of basal values, aortic blood flow: 0%
Aortic blood flow; 2.0 mg/kg i.v., imm.
  Changes (%) of basal values, aortic blood flow: +9.9%
Aortic blood flow; 6.0 mg/kg i.v., 1 min
  Changes (%) of basal values, aortic blood flow: +5.8%
Aortic blood flow; 6.0 mg/kg i.v., 5 min
  Changes (%) of basal values, aortic blood flow: 0%
Aortic blood flow; 6.0 mg/kg i.v., 10 min
  Changes (%) of basal values, aortic blood flow: -3.7%
Aortic blood flow; 6.0 mg/kg i.v., 20 min
  Changes (%) of basal values, aortic blood flow: -2.8%
Aortic blood flow; 6.0 mg/kg i.v., 30 min
  Changes (%) of basal values, aortic blood flow: -1.5%
Aortic blood flow; 6.0 mg/kg i.v., 40 min
  Changes (%) of basal values, aortic blood flow: -0.3%
Aortic blood flow; 6.0 mg/kg i.v., imm.
  Changes (%) of basal values, aortic blood flow: +11.7%
Aortic blood flow; 20.0 mg/kg i.v., 1 min
  Changes (%) of basal values, aortic blood flow: +7.6%
Aortic blood flow; 20.0 mg/kg i.v., 5 min
  Changes (%) of basal values, aortic blood flow: -4.8%
Aortic blood flow; 20.0 mg/kg i.v., 10 min
  Changes (%) of basal values, aortic blood flow: -12.4%
Aortic blood flow; 20.0 mg/kg i.v., 20 min
  Changes (%) of basal values, aortic blood flow: -10.5%
Aortic blood flow; 20.0 mg/kg i.v., 30 min
  Changes (%) of basal values, aortic blood flow: -9.5%
Aortic blood flow; 20.0 mg/kg i.v., 40 min
  Changes (%) of basal values, aortic blood flow: -7.6%
Aortic blood flow; 20.0 mg/kg i.v., imm.
  Changes (%) of basal values, aortic blood flow: +16.3%
Aortic blood flow; i.v., anesthetized dogs
  Effects on aortic blood flow (in words): an increase in blood flow immediately after administration, followed by a decrease in blood flow
Heart rate; 2.0 mg/kg i.v., 1 min
  Changes(%) of basal values, heart rate: -0.2%
Heart rate; 2.0 mg/kg i.v., 5 min
  Changes(%) of basal values, heart rate: -0.6%
Heart rate; 2.0 mg/kg i.v., 10 min
  Changes(%) of basal values, heart rate: -1.3%
Heart rate; 2.0 mg/kg i.v., 20 min
  Changes(%) of basal values, heart rate: 0%
Heart rate; 2.0 mg/kg i.v., 30 min
  Changes(%) of basal values, heart rate: 0%
Heart rate; 2.0 mg/kg i.v., 40 min
  Changes(%) of basal values, heart rate: 0%
Heart rate; 2.0 mg/kg i.v., imm.
  Changes(%) of basal values, heart rate: -2.9%
Heart rate; 6.0 mg/kg i.v., 1 min
  Changes(%) of basal values, heart rate: -0.9%
Heart rate; 6.0 mg/kg i.v., 5 min
  Changes(%) of basal values, heart rate: -3.7%
Heart rate; 6.0 mg/kg i.v., 10 min
  Changes(%) of basal values, heart rate: -1.4%
Heart rate; 6.0 mg/kg i.v., 20 min
  Changes(%) of basal values, heart rate: -1.3%
Heart rate; 6.0 mg/kg i.v., 30 min
  Changes(%) of basal values, heart rate: -0.8%
Heart rate; 6.0 mg/kg i.v., 40 min
  Changes(%) of basal values, heart rate: -0.6%
Heart rate; 6.0 mg/kg i.v., imm.
  Changes(%) of basal values, heart rate: -9.1%
Heart rate; 20.0 mg/kg i.v., 1 min
  Changes(%) of basal values, heart rate: -1.0%
Heart rate; 20.0 mg/kg i.v., 5 min
  Changes(%) of basal values, heart rate: -7.8%
Heart rate; 20.0 mg/kg i.v., 10 min
  Changes(%) of basal values, heart rate: -9.1%
Heart rate; 20.0 mg/kg i.v., 20 min
  Changes(%) of basal values, heart rate: -7.9%
Heart rate; 20.0 mg/kg i.v., 30 min
  Changes(%) of basal values, heart rate: -7.1%
Heart rate; 20.0 mg/kg i.v., 40 min
  Changes(%) of basal values, heart rate: -6.6%
Heart rate; 20.0 mg/kg i.v., imm.
  Changes(%) of basal values, heart rate: -16.8%
Heart rate; i.v., anesthetized dogs
  Effects on heart rate (in words): a slight negative chronotropic effect
Coronary sinus out flow; 2.0 mg/kg i.v., 1 min
  Changes(%) of basal values, coronary sinus out flow: +2.5%
Coronary sinus out flow; 2.0 mg/kg i.v., 5 min
  Changes(%) of basal values, coronary sinus out flow: -0.8%
Coronary sinus out flow; 2.0 mg/kg i.v., 10 min
  Changes(%) of basal values, coronary sinus out flow: -1.0%
Coronary sinus out flow; 2.0 mg/kg i.v., 20 min
  Changes(%) of basal values, coronary sinus out flow: -0.3%
Coronary sinus out flow; 2.0 mg/kg i.v., 30 min
  Changes(%) of basal values, coronary sinus out flow: 0%
Coronary sinus out flow; 2.0 mg/kg i.v., 40 min
  Changes(%) of basal values, coronary sinus out flow: 0%
Coronary sinus out flow; 2.0 mg/kg i.v., imm.
  Changes(%) of basal values, coronary sinus out flow: +7.8%
Coronary sinus out flow; 6.0 mg/kg i.v., 1 min
  Changes(%) of basal values, coronary sinus out flow: +24.3%
Coronary sinus out flow; 6.0 mg/kg i.v., 5 min
  Changes(%) of basal values, coronary sinus out flow: +4.2%
Coronary sinus out flow; 6.0 mg/kg i.v., 10 min
  Changes(%) of basal values, coronary sinus out flow: +3.3%
Coronary sinus out flow; 6.0 mg/kg i.v., 20 min
  Changes(%) of basal values, coronary sinus out flow: +2.3%
Coronary sinus out flow; 6.0 mg/kg i.v., 30 min
  Changes(%) of basal values, coronary sinus out flow: +1.5%
Coronary sinus out flow; 6.0 mg/kg i.v., 40 min
  Changes(%) of basal values, coronary sinus out flow: +1.1%
Coronary sinus out flow; 6.0 mg/kg i.v., imm.
  Changes(%) of basal values, coronary sinus out flow: +51.3%
Coronary sinus out flow; 20.0 mg/kg i.v., 1 min
  Changes(%) of basal values, coronary sinus out flow: +64.3%
Coronary sinus out flow; 20.0 mg/kg i.v., 5 min
  Changes(%) of basal values, coronary sinus out flow: +14.7%
Coronary sinus out flow; 20.0 mg/kg i.v., 10 min
  Changes(%) of basal values, coronary sinus out flow: +15.8%
Coronary sinus out flow; 20.0 mg/kg i.v., 20 min
  Changes(%) of basal values, coronary sinus out flow: +15.4%
Coronary sinus out flow; 20.0 mg/kg i.v., 30 min
  Changes(%) of basal values, coronary sinus out flow: +12.1%
Coronary sinus out flow; 20.0 mg/kg i.v., 40 min
  Changes(%) of basal values, coronary sinus out flow: +9.8%
Coronary sinus out flow; 20.0 mg/kg i.v., imm.
  Changes(%) of basal values, coronary sinus out flow: +90.3%
Coronary sinus out flow; i.v., anesthetized dogs
  Effects on coronary sinus out flow (in words): a marked increasing effect on coronary sinus out flow, which was proportioned to doses thereof and of long duration
[2]; 2.0 mg/kg i.v., 1 min
  Changes(%) of basal values, coronary sinus oxygen tension: +4.1%
[2]; 2.0 mg/kg i.v., 5 min
  Changes(%) of basal values, coronary sinus oxygen tension: +1.1%
[2]; 2.0 mg/kg i.v., 10 min
  Changes(%) of basal values, coronary sinus oxygen tension: +0.5%
[2]; 2.0 mg/kg i.v., 20 min
  Changes(%) of basal values, coronary sinus oxygen tension: 0%
[2]; 2.0 mg/kg i.v., 30 min
  Changes(%) of basal values, coronary sinus oxygen tension: 0%
[2]; 2.0 mg/kg i.v., 40 min
  Changes(%) of basal values, coronary sinus oxygen tension: 0%
[2]; 2.0 mg/kg i.v., imm.
  Changes(%) of basal values, coronary sinus oxygen tension: +8.3%
[2]; 6.0 mg/kg i.v., 1 min
  Changes(%) of basal values, coronary sinus oxygen tension: +27.0%
[2]; 6.0 mg/kg i.v., 5 min
  Changes(%) of basal values, coronary sinus oxygen tension: +8.0%
[2]; 6.0 mg/kg i.v., 10 min
  Changes(%) of basal values, coronary sinus oxygen tension: +8.5%
[2]; 6.0 mg/kg i.v., 20 min
  Changes(%) of basal values, coronary sinus oxygen tension: +4.2%
[2]; 6.0 mg/kg i.v., 30 min
  Changes(%) of basal values, coronary sinus oxygen tension: +2.5%
[2]; 6.0 mg/kg i.v., 40 min
  Changes(%) of basal values, coronary sinus oxygen tension: +0.8%
[2]; 6.0 mg/kg i.v., imm.
  Changes(%) of basal values, coronary sinus oxygen tension: +29.7%
[2]; 20.0 mg/kg i.v., 1 min
  Changes(%) of basal values, coronary sinus oxygen tension: +39.2%
[2]; 20.0 mg/kg i.v., 5 min
  Changes(%) of basal values, coronary sinus oxygen tension: +20.4%
[2]; 20.0 mg/kg i.v., 10 min
  Changes(%) of basal values, coronary sinus oxygen tension: +16.6%
[2]; 20.0 mg/kg i.v., 20 min
  Changes(%) of basal values, coronary sinus oxygen tension: +20.8%
[2]; 20.0 mg/kg i.v., 30 min
  Changes(%) of basal values, coronary sinus oxygen tension: +20.2%
[2]; 20.0 mg/kg i.v., 40 min
  Changes(%) of basal values, coronary sinus oxygen tension: +19.8%
[2]; 20.0 mg/kg i.v., imm.
  Changes(%) of basal values, coronary sinus oxygen tension: +46.2%
[2]; i.v., anesthetized dogs
  Effects on coronary sinus oxygen tension (in words): a significant increase in coronary sinus oxygen tension, effect of which was of long duration
